This note sets out measurements from PMC8286840, “Identifying SARS-CoV-2 antiviral compounds by screening for small molecule inhibitors of Nsp3 papain-like protease” (Biochemical Journal, 2021).

Where a name gives a salt, the structure may show the parent alone. Read-outs that look alike come from different tables or passages of the source.

The target in test [1] is T1, SARS-CoV-2 PLpro (nsp3 1564–1878) (Severe acute respiratory syndrome coronavirus 2, UniProt P0DTD1). Description: biochemical. Also on record: FRET-quenched peptide (Pro3) cleavage by PLpro, 10 min pre-incubation, slope over 20 min, normalised to no-compound control. To be noted: read-out: % of control remaining.
The target of test [2] is T1, SARS-CoV-2 PLpro (nsp3 1564–1878). The test is described as follows: biochemical. Also on record: FRET-quenched peptide (Pro3) cleavage by PLpro, 10 min pre-incubation, slope over 20 min, normalised to no-compound control. To be noted: read-out: % of control remaining. This is another data set of the same source.
Experimental: The plates were organized with columns 3–22 containing the compounds; the remaining columns were used for reaction controls including substrate only and substrate with enzyme but no compound (Figure 3Aii). The PLpro enzyme was pre-incubated with the compounds for 10 min, and then the reaction was initiated by the addition of substrate. […] We incubated the inhibitors with PLpro before the enzymatic reaction so that the slow-binding inhibitors will not be missed out [21]. […] Fluorescence was read on a Spark multimode microplate reader (Tecan) with an excitation wavelength at 330 nm and emission wavelength at 420 nm. […] An amount of 5 µl of the enzyme was pre-incubated with compounds for 10 min before the addition of 15 µl substrate. Fluorescence was monitored at 2 min for 20 min with 3 min intervals giving a total of seven readings.

As for `CC(C)CC(=O)NCC(=O)O` [N-Isovaleroylglycine], the remaining activity at 3.75 µM in test [1] (Well no.=6643, high concentration screen) was 122%. In addition, the remaining activity at 1.25 µM in test [2] (Well no.=6643, low concentration screen) worked out at 110%.
For the compound `CCCCC/C=C\C/C=C\CCCCCCCC(=O)NCC(=O)O` [N-Linoleoylglycine], the remaining activity at 3.75 µM in test [1] (Well no.=4595, high concentration screen) is 94.3%. Also, in test [2] (Well no.=4595, low concentration screen), the remaining activity at 1.25 µM worked out at 95%.
As for `CN1C[C@H](O)[C@@H](O)[C@H](O)[C@H]1CO` [N-Methyl-1-deoxynojirimycin], the remaining activity at 3.75 µM in test [1] (Well no.=1016, high concentration screen) came out at 98.3%. The remaining activity at 1.25 µM in test [2] (Well no.=1016, low concentration screen) was found to be 99.2%.
As for `CN[C@H](CC(=O)O)C(=O)O` [N-Methyl-D-aspartic acid], the remaining activity at 3.75 µM in test [1] (Well no.=1020, high concentration screen) amounted to 105%. In test [2] (Well no.=1020, low concentration screen), the remaining activity at 1.25 µM was 103%.
With `CNC(=O)c1cc2c(cn1)[nH]c1ccccc12` [N-Methyl-beta-carboline-3-carboxamide], in test [1] (Well no.=655, high concentration screen), the remaining activity at 3.75 µM was found to be 94.2%. In addition, in test [2] (Well no.=655, low concentration screen), the remaining activity at 1.25 µM was found to be 96.4%.
As for `CNCCc1ccc(O)c(O)c1` [N-Methyldopamine hydrochloride], the remaining activity at 3.75 µM in test [1] (Well no.=693, high concentration screen) was 91.2%. Moreover, the remaining activity at 1.25 µM in test [2] (Well no.=693, low concentration screen) was found to be 90.9%.
As to `CN1CC(=O)NC1=O` [N-Methylhydantoin], the remaining activity at 3.75 µM in test [1] (Well no.=6395, high concentration screen) was found to be 98.5%. The remaining activity at 1.25 µM in test [2] (Well no.=6395, low concentration screen) was found to be 95.6%.
With `CN(C)CC(=O)O` [N-Methylsarcosine], the remaining activity at 3.75 µM in test [1] (Well no.=6873, high concentration screen) is 102%. Besides, the remaining activity at 1.25 µM in test [2] (Well no.=6873, low concentration screen) was determined as 104%.
Turning to `CCCCCCCC/C=C\CCCCCCCC(=O)NCCO` [N-Oleoylethanolamine], the remaining activity at 3.75 µM in test [1] (Well no.=1086, high concentration screen) was determined as 94.6%. Moreover, in test [2] (Well no.=1086, low concentration screen), the remaining activity at 1.25 µM worked out at 96.9%.
Turning to `CCCCCCCC/C=C\CCCCCCCC(=O)NCC(=O)O` [N-Oleoylglycine], in test [1] (Well no.=5803, high concentration screen), the remaining activity at 3.75 µM was 106%. Moreover, in test [2] (Well no.=5803, low concentration screen), the remaining activity at 1.25 µM turned out to be 104%.
Consider `O=C(O)CNC(=O)C(=O)O` [N-Oxalylglycine], for which, in test [1] (Well no.=5387, high concentration screen), the remaining activity at 3.75 µM was found to be 92.4%. In addition, the remaining activity at 1.25 µM in test [2] (Well no.=5387, low concentration screen) amounted to 97.9%.
As for `O=C(O)c1ccccc1Nc1ccccc1` [N-Phenylanthranilic acid], in test [1] (Well no.=51, high concentration screen), the remaining activity at 3.75 µM came out at 95.6%. Also, in test [2] (Well no.=51, low concentration screen), the remaining activity at 1.25 µM was determined as 101%.
In the case of `CCCOC(=O)c1cc(O)c(O)c(O)c1` [N-Propyl gallate], the remaining activity at 3.75 µM in test [1] (Well no.=3987, high concentration screen) came to 102%. Besides, in test [2] (Well no.=3987, low concentration screen), the remaining activity at 1.25 µM was found to be 104%.
With `O=C(O)CCC(=O)N1CCC[C@H]1C(=O)O` [N-Succinyl-L-proline], in test [1] (Well no.=1506, high concentration screen), the remaining activity at 3.75 µM is 91.2%. Moreover, the remaining activity at 1.25 µM in test [2] (Well no.=1506, low concentration screen) came to 89.9%.
For the compound `CCCCCCCCC(=O)NCc1ccc(O)c(OC)c1` [N-Vanillylnonanamide], in test [1], the remaining activity at 3.75 µM turned out to be 96.6%. In test [2], the remaining activity at 1.25 µM was found to be 96.7%.
Take `CC(ONC(=O)c1cc(C(F)(F)F)cc(C(F)(F)F)c1)C(=O)Nc1ccc(Cl)cc1` (stereo not shown) [N-[2-(4-chloroanilino)-1-methyl-2-oxoethoxy]-3,5-bis(trifluoromethyl)benzamide]: in test [1] (Well no.=5698, high concentration screen), the remaining activity at 3.75 µM turned out to be 103%. Further, in test [2] (Well no.=5698, low concentration screen), the remaining activity at 1.25 µM was 101%.
For `Cc1ccc(F)cc1C(=O)Nc1ccc(C(=O)N2Cc3cccn3Cc3ccccc32)c(Cl)c1` [N-[3-chloro-4-(5H-pyrrolo[2,1-c][1,4]benzodiazepin-10(11H)-ylcarbonyl)phenyl]-5-fluoro-2-methylbenzamide], the remaining activity at 3.75 µM in test [1] (Well no.=5601, high concentration screen) worked out at 107%. Moreover, in test [2] (Well no.=5601, low concentration screen), the remaining activity at 1.25 µM was 103%.
Regarding `CN(C)[C@@H]1CCc2[nH]c3ccc(NC(=O)c4ccc(F)cc4)cc3c2C1` [N-[(3R)-3-(dimethylamino)-2,3,4,9-tetrahydro-1H-carbazol-6-yl]-4-fluorobenzamide hydrochloride], the remaining activity at 3.75 µM in test [1] (Well no.=6008, high concentration screen) was 95.9%. In test [2] (Well no.=6008, low concentration screen), the remaining activity at 1.25 µM is 97.7%.
Consider `Nc1ccc(CNc2ncnc3c2ncn3[C@@H]2O[C@H](CO)[C@@H](O)[C@H]2O)cc1` [N-[(4-Aminophenyl)methyl]adenosine], for which the remaining activity at 3.75 µM was found to be 100% in test [1] (Well no.=8319, high concentration screen) and 99.6% in test [1] (Well no.=8895, high concentration screen). The remaining activity at 1.25 µM was 104% in test [2] (Well no.=8319, low concentration screen) and 102% in test [2] (Well no.=8895, low concentration screen).
As to `Cc1ccccc1C(C(=O)NC1CCCCC1)N(C(=O)Cn1ccnc1C)c1cccc(F)c1` (stereo not shown) [N-cyclohexyl-2-(N-(3-fluorophenyl)-2-(2-methyl-1H-imidazol-1-yl)acetamido)-2-(o-tolyl)acetamide], the remaining activity at 3.75 µM in test [1] (Well no.=5600, high concentration screen) turned out to be 95.4%. The remaining activity at 1.25 µM in test [2] (Well no.=5600, low concentration screen) was found to be 93.6%.
For the compound `O=C(Nc1cccc(C(F)(F)F)c1)Nc1cc(S(=O)(=O)NC2CC2)ccc1-c1ccsc1` [N-cyclopropyl-4-(thiophen-3-yl)-3-(3-(3-(trifluoromethyl)phenyl)ureido)benzenesulfonamide], the remaining activity at 3.75 µM in test [1] (Well no.=5549, high concentration screen) amounted to 103%. The remaining activity at 1.25 µM in test [2] (Well no.=5549, low concentration screen) worked out at 100%.
For the compound `COc1nc(OCc2cccc(-c3ccccc3)c2C)ccc1CNCCN` [N-deacetylated BMS-202], the remaining activity at 3.75 µM in test [1] (Well no.=8458, high concentration screen) was 100%. Further, the remaining activity at 1.25 µM in test [2] (Well no.=8458, low concentration screen) is 102%.
As to `C[C@@H]1c2cc(O)c(O)cc2CCN1C` [N-methyl-R-salsolinol hydrobromide], the remaining activity at 3.75 µM in test [1] (Well no.=830, high concentration screen) is 101%. For the same compound, the remaining activity at 1.25 µM in test [2] (Well no.=830, low concentration screen) is 99.6%.
`C[C@H](C#Cc1ccc(Cc2ccc(F)cc2)s1)N(O)C(N)=O` [N-{(1R)-3-[5-(4-fluorobenzyl)-2-thienyl]-1-methyl-2-propynyl}-N-hydroxyurea]: in test [1] (Well no.=5434, high concentration screen), the remaining activity at 3.75 µM stood at 103%. Further, the remaining activity at 1.25 µM in test [2] (Well no.=5434, low concentration screen) amounted to 99.4%.
As to `CON(C)C(=O)[C@H](O)[C@H](Cc1ccccc1)NC(=O)c1cc2cc(Cl)ccc2[nH]1` [N-{(1S,2R)-1-benzyl-2-hydroxy-3-[methoxy(methyl)amino]-3-oxopropyl}-5-chloro-1H-indole-2-carboxamide], the remaining activity at 3.75 µM in test [1] (Well no.=6057, high concentration screen) came out at 97.9%. For the same compound, the remaining activity at 1.25 µM in test [2] (Well no.=6057, low concentration screen) was 100%.
Regarding `CC(C)S(=O)(=O)N[C@H]1CCOC[C@@H]1c1ccc(-c2ccc(C#N)s2)cc1` [N-{(3R,4S)-3-[4-(5-cyano-2-thienyl)phenyl]tetrahydro-2H-pyran-4-yl}-2-propanesulfonamide], in test [1] (Well no.=6010, high concentration screen), the remaining activity at 3.75 µM was 92.7%. Also, the remaining activity at 1.25 µM in test [2] (Well no.=6010, low concentration screen) amounted to 100%.
As for `COc1ccccc1N1CCN(CCCCN2C(=O)c3ccccc3C2=O)CC1` [NAN-190 (hydrobromide)], the remaining activity at 3.75 µM in test [1] (Well no.=7191, high concentration screen) stood at 94.2%. The remaining activity at 1.25 µM in test [2] (Well no.=7191, low concentration screen) is 98.5%.
Turning to `COc1ccccc1N1CCN(CCCCN2C(=O)c3ccccc3C2=O)CC1` [NAN-190 hydrobromide], the remaining activity at 3.75 µM in test [1] (Well no.=1141, high concentration screen) was 99.5%. In addition, the remaining activity at 1.25 µM in test [2] (Well no.=1141, low concentration screen) came out at 97%.
`CCOc1ccc(-n2c([C@@H](C)N(Cc3cccnc3)C(=O)Cc3ccc(F)c(C(F)(F)F)c3)nc3ncccc3c2=O)cc1` [NBI-74330]: the remaining activity at 3.75 µM in test [1] (Well no.=8611, high concentration screen) was determined as 97.8%. Besides, the remaining activity at 1.25 µM in test [2] (Well no.=8611, low concentration screen) was found to be 108%.
Turning to `NS(=O)(=O)c1cccc2c1c([N+](=O)[O-])cc1nc(O)c(O)nc12` [NBQX disodium], the remaining activity at 3.75 µM in test [1] (Well no.=942, high concentration screen) is 98%. In addition, in test [2] (Well no.=942, low concentration screen), the remaining activity at 1.25 µM was 101%.
Take `O=C(O)/C=C/C(O)c1ccc(Cl)cc1` (stereo not shown) [NCS-356]: the remaining activity at 3.75 µM in test [1] (Well no.=807, high concentration screen) came out at 101%. Further, in test [2] (Well no.=807, low concentration screen), the remaining activity at 1.25 µM is 102%.
